Source: US10766869B2, “Triazoles for the treatment of demyelinating dieases” (Vertex Pharmaceuticals Incorporated, priority 2015, dated 2020)
Where two headings read alike, the source gives them in different places.

Test system: primary rat mixed cortical cells
Assay: In vitro myelination assay (MBP positive myelin strands, fold myelin pixels above background)
Assay type: cell-based
Conditions: Rattus norvegicus; for fold induction at 1 µM: 1.0 μM compound; for fold induction at 10 µM: 10.0 μM compound
Procedure, shortened: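 Myelination read as total MBP-immunopositive strand pixels per well, imaged at 10× after fixation on day 14 and expressed relative to untreated wells, at 1.0 and 10.0 μM. Cells: dissociated postnatal day 1 rat cortex, cultured two weeks with compound, re-dosed at days 6 and 10.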

[1] = read-out: Fold myelin pixels above background relative to baseline of no added compound
[2] = relative to baseline of no added compound, read-out: Fold myelin pixels above background, 1.0 μM
[3] = relative to baseline of no added compound, read-out: Fold myelin pixels above background, 10.0 μM
[4] = relative to baseline of no added compound, read-out: Fold myelin pixels above background

SMILES	fold induction at 1 µM [1]	fold induction at 10 µM [1]	also measured
Cc1cc(Nc2ncn(-c3cc(F)cc(F)c3)n2)cc(N2CCC(N3CCCC(O)C3)CC2)c1 (centres unmarked) [Compound 1054, 1-[1-[3-[[1-(3,5-difluorophenyl)-1,2,4-triazol-3-yl]amino]-5-methyl-phenyl]-4-piperidyl]piperidin-3-ol]	≤ 1	≤ 1	
Cc1cc(Nc2ncn(-c3cc(F)cc(F)c3)n2)cc(N2CCN(CC(O)CN(C)C)CC2)c1 (centres unmarked) [Compound 1078, 1-[4-[3-[[1-(3,5-difluorophenyl)-1,2,4-triazol-3-yl]amino]-5-methyl-phenyl]piperazin-1-yl]-3-(dimethylamino)propan-2-ol]	1 to 10	≤ 1	
Cc1cc(Nc2ncn(-c3cc(F)cc(F)c3)n2)cc(N2CCN3CCC2C3)c1 (centres unmarked) [Compound 889, N-[3-(1,4-diazabicyclo[3.2.1]octan-4-yl)-5-methyl-phenyl]-1-(3,5-difluorophenyl)-1,2,4-triazol-3-amine]	10 to 100	≤ 1	
Cc1cc(NCCN2CCOCC2C)cc(Nc2ncn(-c3cc(F)cc(F)c3)n2)c1 (centres unmarked) [Compound 1082, N1-[1-(3,5-difluorophenyl)-1,2,4-triazol-3-yl]-5-methyl-N3-[2-(3-methylmorpholin-4-yl)ethyl]benzene-1,3-diamine]	10 to 100	≤ 1	
Cc1cc(Nc2ncn(-c3ccccc3)n2)cc(N2C[C@@H]3C[C@H]2CN3C2CC2)c1 [Compound 292, N-[3-[(1S,4S)-2-cyclopropyl-2,5-diazabicyclo[2.2.1]heptan-5-yl]-5-methyl-phenyl]-1-phenyl-1,2,4-triazol-3-amine]			fold induction at 1 µM [2]: 100 to 1000; fold induction at 10 µM [3]: 10 to 100
Cc1cc(Nc2cc(C)[nH]n2)cc(Nc2ncn(-c3ccccc3)n2)c1 [Compound 699, 5-methyl-N3-(5-methyl-1H-pyrazol-3-yl)-N1-(1-phenyl-1,2,4-triazol-3-yl)benzene-1,3-diamine]			fold induction at 1 µM [4]: 1 to 10; fold induction at 10 µM [4]: ≤ 1
Cc1cc(Nc2ncn(-c3cc(F)cc(F)c3)n2)cc(N2CCC(OCCN(C)C)CC2)c1 [Compound 933, 1-(3,5-difluorophenyl)-N-[3-[4-[2-(dimethylamino)ethoxy]-1-piperidyl]-5-methyl-phenyl]-1,2,4-triazol-3-amine]	1 to 10	≤ 1	
Cc1cc(Nc2ncn(-c3cncc(C)n3)n2)cc(N2CCN(C3CC3)CC2)c1 [Compound 420, N-[3-(4-cyclopropylpiperazin-1-yl)-5-methyl-phenyl]-1-(6-methylpyrazin-2-yl)-1,2,4-triazol-3-amine]			fold induction at 1 µM [4]: 1 to 10; fold induction at 10 µM [4]: 1 to 10
Cc1cc(Nc2ncn(-c3cc(F)cc(F)c3)n2)cc(N[C@H]2C[C@@H](N3CCOCC3)C2)c1 (single isomer, unassigned) [Compound 861, N1-[1-(3,5-difluorophenyl)-1,2,4-triazol-3-yl]-5-methyl-N3-(3-morpholinocyclobutyl)benzene-1,3-diamine]	10 to 100	≤ 1	
Cc1cc(Nc2ncn(-c3ccc(F)c(F)c3)n2)cc(O[C@H]2CCN(C3COC3)C2)c1 [Compound 52, 1-(3,4-difluorophenyl)-N-[3-methyl-5-[(3S)-1-(oxetan-3-yl)pyrrolidin-3-yl]oxy-phenyl]-1,2,4-triazol-3-amine]			fold induction at 1 µM [2]: 1000 to 10000; fold induction at 10 µM [3]: ≤ 1
CC(=O)N[C@H]1C[C@H](Oc2cc(C)cc(Nc3ncn(-c4cc(F)cc(F)c4)n3)c2)C1 [Compound 813, N-[3-[3-[[1-(3,5-difluorophenyl)-1,2,4-triazol-3-yl]amino]-5-methyl-phenoxy]cyclobutyl]acetamide]	10 to 100	1 to 10	
Cc1cc(Nc2ncn(-c3cc(F)cc(F)c3)n2)cc(N2CCOC2=O)c1 [Compound 517, 3-[3-[[1-(3,5-difluorophenyl)-1,2,4-triazol-3-yl]amino]-5-methyl-phenyl]oxazolidin-2-one]			fold induction at 1 µM [4]: 10 to 100; fold induction at 10 µM [4]: 10 to 100
CCN1CC2CC1CN2c1cc(C)cc(Nc2ncn(-c3cc(F)cc(F)c3)n2)c1 (centres unmarked) [Compound 996, 1-(3,5-difluorophenyl)-N-[3-(5-ethyl-2,5-diazabicyclo[2.2.1]heptan-2-yl)-5-methyl-phenyl]-1,2,4-triazol-3-amine]	1 to 10	≤ 1	
Cc1cc(Nc2ncn(-c3cccc(C(F)(F)F)c3)n2)cc(N2CCC(N3CCOCC3)CC2)c1 [Compound 854, N-[3-methyl-5-(4-morpholino-1-piperidyl)phenyl]-1-[3-(trifluoromethyl)phenyl]-1,2,4-triazol-3-amine]	100 to 1000	10 to 100	
Cc1cc(Nc2ncn(-c3cccnc3)n2)cc(N2CC3(C2)CN(C(C)C)C3)c1 [Compound 966, N-[3-(2-isopropyl-2,6-diazaspiro[3.3]heptan-6-yl)-5-methyl-phenyl]-1-(3-pyridyl)-1,2,4-triazol-3-amine]	1 to 10	≤ 1	
Cc1cc(Nc2ncn(-c3cncc(Cl)c3)n2)cc(N2CCN(C)CC2)c1 [Compound 262, 1-(5-chloro-3-pyridyl)-N-[3-methyl-5-(4-methylpiperazin-1-yl)phenyl]-1,2,4-triazol-3-amine]			fold induction at 1 µM [2]: 10 to 100; fold induction at 10 µM [3]: 100 to 1000
Cc1cc(Nc2ncn(-c3ccccc3)n2)c(F)c(N2CCN(C3COC3)CC2)c1 [Compound 1085, N-[2-fluoro-5-methyl-3-[4-(oxetan-3-yl)piperazin-1-yl]phenyl]-1-phenyl-1,2,4-triazol-3-amine]	10 to 100	10 to 100	
Cc1cc(Nc2ccn(C(C)C)n2)cc(Nc2ncn(-c3ccccc3)n2)c1 [Compound 669, N3-(1-isopropylpyrazol-3-yl)-5-methyl-N1-(1-phenyl-1,2,4-triazol-3-yl)benzene-1,3-diamine]			fold induction at 1 µM [4]: 10 to 100; fold induction at 10 µM [4]: ≤ 1
Cc1cc(Nc2ncn(-c3ccccc3)n2)cc(C2CCN(C3CC3)CC2)c1 [Compound 120, N-[3-(1-cyclopropyl-4-piperidyl)-5-methyl-phenyl]-1-phenyl-1,2,4-triazol-3-amine]			fold induction at 1 µM [2]: 1000 to 10000; fold induction at 10 µM [3]: ≤ 1
Cc1cc(Nc2ncn(-c3cc(F)cc(F)c3)n2)cc(N2CC3CC(C2)O3)c1 [Compound 527, 1-(3,5-difluorophenyl)-N-[3-methyl-5-(6-oxa-3-azabicyclo[3.1.1]heptan-3-yl)phenyl]-1,2,4-triazol-3-amine]			fold induction at 1 µM [4]: 100 to 1000; fold induction at 10 µM [4]: 100 to 1000
CNC(=O)c1cc(Nc2ncn(-c3ccc(F)c(F)c3)n2)nc(N2CCN(C3COC3)CC2)c1 [Compound 789, 2-[[1-(3,4-difluorophenyl)-1,2,4-triazol-3-yl]amino]-N-methyl-6-[4-(oxetan-3-yl)piperazin-1-yl]pyridine-4-carboxamide]	1 to 10	≤ 1	
CN1CCN(c2cc(Nc3ncn(-c4ccncn4)n3)cc(C(F)(F)F)c2)CC1 [Compound 96, N-[3-(4-methylpiperazin-1-yl)-5-(trifluoromethyl)phenyl]-1-pyrimidin-4-yl-1,2,4-triazol-3-amine]			fold induction at 1 µM [2]: 100 to 1000; fold induction at 10 µM [3]: 100 to 1000
